Measured values as given in patent US20240285599A1, “Mature-Hepatocyte Transdifferentiation Suppressing Composition” (OSAKA UNIVERSITY, priority 2021, published 2024).

How the values were obtained:
[1] = test system: human cholangiocarcinoma cell line HuCCA1; assay: Cell proliferation assay (IncuCyte) of cholangiocarcinoma cell line HuCCA1; format: cell-based
Method: (§1) A human hepatoma cell line HepG2, and human cholangiocarcinoma cell lines HuCCT1, HuCCA1, and KKU213 were obtained from the JCRB Cell Bank. The HepG2 and KKU213 cells were cultured in a Dulbecco's modified Eagle's medium (DMEM; Nacalai Tesque, Inc., Japan) having added thereto 10% heat-inactivated fetal calf serum (FCS; Gibco, USA). The HuCCT1 cells were cultured in an RPMI medium (Nacalai Tesque, Inc., Japan) containing 10% FCS. The HuCCA1 cells were cultured in D-MEM/Ham's F-12 (containing L-glutamine and phenol red) (Wako Pure Chemical Industries, Ltd., Japan) having added thereto 10% FCS. All the cells were cultured with a CO2 incubator at 37° C. The cells were detached with trypsin (Nacalai Tesque, Inc., Japan), and were passaged. Those cells were routinely examined for mycoplasma.
(§2) The transfection of siRNA or a plasmid into cells was performed with Lipofectamine RNAiMAX Transfection Reagent (Thermo Fisher Scientific, Inc., USA) or Lipofectamine 2000 (Thermo Fisher Scientific, Inc., USA), respectively, and with Opti-MEM (Thermo Fisher Scientific, Inc., USA). The transfection of the siRNA was performed as follows: the cells were dispersed at a concentration of 100,000 cells/mL; 10 μM of the siRNA was mixed into 100 μL of the Opti-MEM at a ratio of 1 μL, and the mixture was left at rest for 5 minutes; and then 3 μL of the RNAiMAX was mixed into the mixture, and the whole was left at rest for 15 minutes, followed by administration to the supernatant of the previously dispersed cells. Further, a medium change was performed 24 hours thereafter.
(§3) Hepatocytes or cholangiocarcinoma cells were inoculated on a 96-well plate, and their cell proliferation was analyzed with IncuCyte (trademark) Si (Sartorius AG, Germany) in accordance with the manufacturer's instructions.
(§4) Two kinds of NIK siRNA (the NIK KD #1 and the NIK KD #2) were introduced into each of human cholangiocarcinoma cell lines HuCCT1, HuCCA1, and KKU213 to knock down MAP3K14 (NIK). […]

[2] = test system: human cholangiocarcinoma cell line KKU213; assay: Cell proliferation assay (IncuCyte) of cholangiocarcinoma cell line KKU213; format: cell-based
Method: as §1, §2, §3, §4

[3] = test system: TRAF3/PTEN knockdown HepG2 cell; assay: KRT19 mRNA quantification and immunoblotting (P52) in TRAF3/PTEN knockdown HepG2; format: cell-based, human; conditions: HepG2 (PTKD #1); for increase in expression of P52 by knockdown of TRAF3 and PTEN: western blot
Method: as §2
A procedure for western blotting is as described in the previous report (Tanaka S, et al. Hepatology. 2016; 64(6): 1994-2014). The protein extracts of cells and animal tissues were prepared by using a lysis buffer having added thereto a protease inhibitor (Nacalai Tesque, Inc., Japan) and a phosphatase inhibitor (Nacalai Tesque, Inc., Japan). In western blotting for the detection of NIK, MG-132 (ChemScene, USA) was administered at a concentration of 5 μM 4 hours before protein recovery. The following antibodies were used in immunodetection: TRAF3 (1:1,000 Cell Signaling, #4729), PTEN (1:1,000 Cell Signaling, #9188), KRT19 (1:50,000 Abcam, #ab52625), p100/p52 (1:1,000 Cell Signaling, #4882), NIK (1:1,000 Cell Signaling, #4994), and β-actin (1:10,000 Sigma-Aldrich Co., LLC, #A5316). Anti-mouse IgG, HRP-linked whole Ab sheep (Cytiva, Japan), or anti-rabbit IgG, HRP-linked whole Ab donkey (Cytiva, Japan) was used as a secondary antibody, and luminescence analysis was performed with SuperSignal (trademark) West Pico PLUS Chemiluminescent Substrate (Thermo Fisher Scientific, Inc., USA).
Total RNA was extracted from a cell line and a human liver tissue with RNeasy Mini Kit (QIAGEN N.V., Nederland). Then, 1 μg of the total RNA was reverse-transcribed with ReverTra Ace qPCR RT Kit (Toyobo Co., Ltd., Tokyo) to synthesize complementary DNA. The mRNA expression of each of the following genes was analyzed through use of a TaqMan gene expression assay: human GAPDH (Hs02758991), human TRAF3 (Hs00936781), human PTEN (Hs02621230), human KRT19 (Hs00761767), human NIK (Hs01089753), mouse Gapdh (Mm09999915), mouse Traf3 (Mm00495752), mouse Pten (Mm00477208), mouse Krt19 (Mm00492980), mouse NIK (Mm00444166), and mouse Alb (Mm00802090). The gene expression amount of a human and the gene expression amount of a mouse were normalized to the expression amount of GAPDH.
The effect of TRAF3/PTEN inhibition on the expression of a bile duct marker in each of a primary human hepatocyte (hereinafter also referred to as “PHH”) and a human hepatoma cell line HepG2 cell (hereinafter also referred to as “HepG2”) was evaluated. The PHH and the HepG2 are each a mature hepatocyte having an albumin-producing ability. The TRAF3 and PTEN of each of the HepG2 and the PHH were knocked down with siRNA. The term “[…]” means a HepG2 or a PHH having introduced thereinto siRNA Traf3 #2 and Pten #1 (hereinafter also referred to as “PTKD #1HepG2” and “PTKD #1PHH” respectively). The term “PTKD #2” means a HepG2 or a PHH having introduced thereinto the siRNA Traf3 #2 and Pten #3 (hereinafter also referred to as “PTKD #2HepG2” and “PTKD #2PHH” respectively). All the siRNAs were obtained from Thermo Fisher Scientific, Inc. The sequence of each of the siRNAs is described below.
Specifically, 24 hours after the start of the culture of each of the PTKD #1HepG2 and the PTKD #1PHH obtained in Test Example 5, NIKSMI described above was added at a concentration of 9 μM. 48 Hours after that, the cells were recovered, and the mRNA of KRT19 was quantified, followed by immunoblotting. […]

[4] = NIK siRNA transfected, 72 h, FIG. 13
[5] = NIK siRNA transfected, cells recovered after 72 h culture, FIG. 13

COc1cc(C(N)=O)nc(-c2cccc(C#C[C@]3(O)CCN(C)C3=O)c2)c1 [NIKSMI, (R)-6-(3-((3-hydroxy-1-methyl-2-oxopyrrolidin-3-yl)ethynyl)phenyl)-4-methoxypicolinamide]
significantly suppressed: proliferation of cholangiocarcinoma cells ([1]; 9 μM or 15 μM added at beginning of culture, FIG. 21B) | proliferation of cholangiocarcinoma cells ([2]; 9 μM or 15 μM added at beginning of culture, FIG. 21C) | increase in expression of KRT19 by knockdown of TRAF3 and PTEN ([3]; NIKSMI 9 μM added 24 h after start of culture, cells recovered 48 h later, FIG. 11) | increase in expression of P52 by knockdown of TRAF3 and PTEN ([3]; NIKSMI 9 μM, 48 h, FIG. 11)

NIK KD #1: siRNA of NIK, SEQ ID NO: 2 (sense) and 3 (antisense), from Thermo Fisher Scientific (sense CAAACGCAAAGAGCAAGAAUU; antisense UUCUUGCUCUUUGCGUUUGCA; listed as RNA, chemistry not given here)
significantly suppressed: proliferation of cholangiocarcinoma cells ([1]; NIK siRNA introduced, FIG. 19) | proliferation of cholangiocarcinoma cells ([2]; NIK siRNA introduced, FIG. 20) | increase in expression of P52 by knockdown of TRAF3 and PTEN [3, 4] | increase in expression of KRT19 by knockdown of TRAF3 and PTEN [3, 5]

NIK KD #2: siRNA of NIK, SEQ ID NO: 4 (sense) and 5 (antisense), from Thermo Fisher Scientific (sense GCAAAGAGCAAGAACCAAAUU; antisense UUUGGUUCUUGCUCUUUGCGU; listed as RNA, chemistry not given here)
significantly suppressed: proliferation of cholangiocarcinoma cells ([1]; NIK siRNA introduced, FIG. 19) | proliferation of cholangiocarcinoma cells ([2]; NIK siRNA introduced, FIG. 20) | increase in expression of P52 by knockdown of TRAF3 and PTEN [3, 4] | increase in expression of KRT19 by knockdown of TRAF3 and PTEN [3, 5]
